Measurements taken from a melting point compilation (Tetko et al.).

SMILES	melting point
O=C(O)c1cc(Cl)c2cc(Cl)ccc2n1	194 to 196 °C
Cn1c(S)nc2ccsc2c1=O	313 to 315 °C
Nc1nc(-c2ccccc2C(F)(F)F)cs1	115 to 117 °C
FC(F)n1ccnc1Cn1cc(Br)cn1	79 to 81 °C
COc1ccc(Oc2ccc(C=O)cc2)cc1	65 to 67 °C
O=C(O)c1cccn1-c1cccc(I)c1	165 to 167 °C
N#Cc1cc(Br)c2cc[nH]c2c1	139 to 141 °C
CC(C)(C)c1c(C(=O)O)nnn1-c1ccc(Cl)cc1F	152 to 154 °C
[N-]=[N+]=NC(=O)c1ccco1	60 to 62 °C
CNC(C)c1ccc(S(C)=O)cc1 (stereo not drawn)	52 to 54 °C
O=C(O)c1ccc(NS(=O)(=O)c2cccs2)cc1	226 to 228 °C
Nc1ccc(S(=O)(=O)Nc2ccc(Cl)cc2)cc1N	146 to 150 °C
CC(C)(C)OC(=O)N1CCCCC1C#N (stereo not drawn)	62 to 66 °C
CCOC(=O)c1cccnc1SCC(=O)O	109 to 111 °C
Nc1ccc(F)cc1-c1ccc(Cl)cc1	54 to 56 °C
CC(=O)Nc1nnc(S)s1	267 to 269 °C

Next, values leading:

melting point	SMILES
109 to 111 °C	CCOCCOc1ccc(Br)cc1/C=C/C(=O)O
146 to 148 °C	O=C(O)CCn1ccccc1=O
100 to 102 °C	Cn1c(C2CC2)nc2cnccc21
149 to 151 °C	O=S(=O)(Cl)C=Cc1ccc(Br)cc1
316 to 318 °C	C1=CNc2cccc(=C3N=c4ccncc4=N3)c2=C1
103 to 105 °C	CC1(C)CCc2[nH]c3ccccc3c2C1
144 to 146 °C	Clc1ncnc2c1oc1ccccc12
98 to 102 °C	Nc1ccccc1N1CCCC1=O
113 to 115 °C	Cc1ccc(NC(=O)C2(CN)CCCC2)cc1C
78 to 80 °C	N#Cc1cccc(OCCCCC(=O)O)c1
140 to 142 °C	NC(=S)N1CCCC1
202 to 204 °C	O=C(O)CCc1nncn1-c1ccccc1
